Active and inactive are the calls of the source. The rule behind the calls is not given here.
How the values were obtained:
Assay type in all cases: functional, cell-based
[1] = tested on: NK92; assay: Immunomodulatory activity in human NK92 cells assessed as induction of IFNgamma at 40 nM after 12 hrs by ELISA
[2] = tested on: NK92; assay: Immunomodulatory activity in human NK92 cells assessed as induction of IFNgamma after 12 hrs by ELISA
[3] = tested on: NK92; assay: Immunomodulatory activity in human NK92 cells assessed as induction of IFNgamma at 4 nM after 12 hrs by ELISA

Structure (SMILES): CCCCCCCCCCCCCCCC(=O)O[C@@H]1[C@@H](C)[C@@]2(O)[C@@H](C(=O)C(CO)=C[C@]3(O)C(=O)C(C)=C[C@@H]23)[C@H]2[C@]1(OC(C)=O)[C@@]2(C)CO
- Activity [1]: Active

Structure (SMILES): CCCCCCCCCCCCCC(=O)O[C@@H]1[C@@H](C)[C@@]2(O)[C@@H](C=C(CO)C[C@]3(O)C(=O)C(C)=C[C@@H]23)[C@@H]2C(C)(C)[C@]12OC(C)=O
- Activity [2]: Active

Structure (SMILES): CCCCCCCCCCCCCCCC(=O)O[C@@H]1[C@@H](C)[C@@]2(O)[C@@H](C(=O)C(CO)=C[C@]3(O)C(=O)C(C)=C[C@@H]23)[C@@H]2C(C)(C)[C@]12OC(C)=O
- Activity [2]: inactive

Structure (SMILES): CCCCCCCCCCCCCCCC(=O)O[C@@H]1[C@@H](C)[C@@]2(O)[C@@H](C=C(CO)C[C@]3(O)C(=O)C(C)=C[C@@H]23)[C@H]2[C@]1(OC(C)=O)[C@@]2(C)CO
- Activity [3]: Active

Structure (SMILES): CCCCCCCCCCCCCCCC(=O)O[C@@H]1[C@@H](C)[C@@]2(O)[C@@H](C=C(CO)C[C@]3(O)C(=O)C(C)=C[C@@H]23)[C@@H]2C(C)(C)[C@]12OC(C)=O
- Activity [3]: Active

Structure (SMILES): CCCCCCCCCCCCCCCC(=O)O[C@@H]1[C@@H](C)[C@]2(O)[C@@H]3C=C(C)C(=O)[C@@H]3CC(CO)=C[C@H]2[C@H]2[C@]1(OC(C)=O)[C@@]2(C)CO
- Activity [2]: inactive

From ChEMBL document CHEMBL2010678, “Tigliane diterpene esters with IFN γ-inducing activity from the leaves of Aleurites fordii” (Bioorg Med Chem Lett, 2012)
